The target of one assay is T1, STAT5b Arg566Trp (Homo sapiens, UniProt P51692, R566W).
T1 construct: His; made in house
T1 sequence (P51692 1-787 R566W): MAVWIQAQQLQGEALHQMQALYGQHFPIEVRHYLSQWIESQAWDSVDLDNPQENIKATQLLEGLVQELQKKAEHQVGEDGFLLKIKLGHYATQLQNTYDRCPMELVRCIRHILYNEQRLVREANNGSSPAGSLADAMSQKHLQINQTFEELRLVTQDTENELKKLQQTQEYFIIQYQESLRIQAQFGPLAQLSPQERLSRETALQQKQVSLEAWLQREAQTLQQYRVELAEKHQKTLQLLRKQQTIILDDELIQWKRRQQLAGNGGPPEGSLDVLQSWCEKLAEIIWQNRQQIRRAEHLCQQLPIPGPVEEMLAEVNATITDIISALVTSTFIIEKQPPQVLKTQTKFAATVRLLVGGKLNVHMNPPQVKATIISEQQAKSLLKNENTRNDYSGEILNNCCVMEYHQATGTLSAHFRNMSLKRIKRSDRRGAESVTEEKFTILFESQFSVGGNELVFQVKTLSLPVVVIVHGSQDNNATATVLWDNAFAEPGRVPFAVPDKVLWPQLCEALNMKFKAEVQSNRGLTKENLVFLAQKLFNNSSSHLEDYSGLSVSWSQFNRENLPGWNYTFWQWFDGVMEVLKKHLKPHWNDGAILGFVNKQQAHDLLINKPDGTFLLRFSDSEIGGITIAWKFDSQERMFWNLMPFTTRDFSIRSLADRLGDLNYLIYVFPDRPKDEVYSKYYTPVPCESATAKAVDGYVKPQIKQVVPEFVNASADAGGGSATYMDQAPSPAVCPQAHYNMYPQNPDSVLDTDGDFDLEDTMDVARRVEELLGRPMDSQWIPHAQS
Description: FP-based competitive binding assay, STAT5b Arg566Trp. How it is done: (§1) Fluorescence polarization assays
(§2) The ability of test compounds to displace 5-carboxyfluorescein-GY(PO3H2)LVLDKW (final concentration: 10 nM) from the SH2 domain of STAT5a/b proteins was analyzed. Proteins […]
(§3) was applied in dilution series comprising the following concentrations: 0.024 – 200 µM […]
(§4) and 0.146 – 600 µM (STAT5b Arg566Glu), respectively. The assays were performed in buffer containing 10 mM Tris, 50 mM NaCl, 1 mM DTT, 1 mM EDTA and 0.1% (v/v) NP-40. Fosfosal was dissolved in DMSO. STAT5a/b proteins and fosfosal were incubated at room temperature for 1 h before adding peptide. Samples were transferred to 384-well microtiter plates and fluorescence polarization was read after a further 1 h incubation time. All measurements were performed in triplicate (n=3), except for STAT5b (n=6) and STAT5a Trp566Arg (n=4). Percent binding was calculated based on a logarithmic curve fit using OriginPro 8G software. IC50 values were converted to Ki values using the published equation.[4] […]
(§5) [4] Z. Nikolovska-Coleska, R. Wang, X. Fang, H. Pan, Y. Tomita, P. Li, P. P. Roller, K.
(§6) Krajewski, N. G. Saito, J. A. Stuckey, S. Wang, Anal. Biochem. 2004, 332, 261-273.

For assay [1], the target named is T2, STAT5b-6M (Gln636Pro/Met639Asn/Phe640Leu/Met644Lys/Asn664Ser/Tyr679Phe) (Homo sapiens, UniProt P51692, F640L/M639N/M644K/N664S/Q636P/Y679F).
T2 construct: His; made in house
T2 sequence (P51692 1-787 Q636P/M639N/F640L/M644K/N664S/Y679F): T1 sequence (P51692 1-787 R566W) with W566R, Q636P, M639N, F640L, M644K, N664S, Y679F
Description: FP-based competitive binding assay, STAT5b-6M. Here is the method: as §1, §2, §3, §4, §5, §6

In another assay the target is T3, STAT5b Arg566Ala (Homo sapiens, UniProt P51692, R566A).
T3 construct: His; made in house
T3 sequence (P51692 1-787 R566A): T1 sequence (P51692 1-787 R566W) with W566A
Briefly: FP-based competitive binding assay, STAT5b Arg566Ala. How it is done: as §1, §2, §3, §4, §5, §6

The term Kd denotes a measure of binding affinity in units of concentration. A high value points to lower affinity. One may read the inhibition as the percentage by which the read-out fell short of the control. Read a low inhibition as little suppression. The term IC50 denotes the concentration that inhibits the measured activity by half. Higher therefore signals weaker potency. As usually defined, the Ki is the dissociation constant of the complex between target and ligand, obtained from inhibition or displacement.

Changes are numbered by the printed parent chain.

As to `CC(C)C[C@H](NC(=O)[C@H](Cc1ccc(OP(=O)(O)O)cc1)NC(=O)CNC(=O)c1ccc2c(c1)C(=O)OC21c2ccc(O)cc2Oc2cc(O)ccc21)C(=O)N[C@H](C(=O)N[C@@H](CC(C)C)C(=O)N[C@@H](CC(=O)O)C(=O)N[C@@H](CCCCN)C(=O)N[C@@H](Cc1c[nH]c2ccccc12)C(=O)O)C(C)C` [5-carboxyfluorescein-GY(PO3H2)LVLDKW], the Kd on STAT5b Arg566Trp worked out at 289 nM; in assay [1], 85 nM; at STAT5b Arg566Ala, 567 nM.
On to `O=C(O)c1ccccc1OP(=O)(O)O` [fosfosal, O‐phosphorylated salicylic acid], for which the inhibition at 600 µM on STAT5b Arg566Trp (STAT5b Arg566Trp, 600 μM, the highest concentration tested) was found to be 24 ± 2%; at STAT5b Arg566Ala (STAT5b Arg566Ala, 600 μM), 22 ± 3%. The compound also showed an IC50 in assay [1] (STAT5b-6M) of 21300 ± 1200 nM. Also, in assay [1] (STAT5b-6M, Ki calculated from IC50), the Ki is 10700 ± 600 nM. In addition, the “increase of activity against STAT5b-6M compared to wild type STAT5b” value in assay [1] (ratio of Ki values) is listed as roughly 3 fold.

These data come from article PMC7496286, “The Selectivity of Fosfosal for STAT5b over STAT5a is Mediated by Arg566 in the Linker Domain” (Chembiochem, 2020).
